In patent US11192916B2, “Pentacyclic triterpene compound and preparation method therefor, and pharmaceutical composition and use thereof” (SHANGHAI INSTITUTE OF MATERIA MEDICA, CHINESE ACADEMY OF …, priority 2017, dated 2021):

target: T1, FXR (Homo sapiens, UniProt Q96RI1); assay: FXR antagonist test, luciferase reporter gene experiment against agonist GW4064; assay type: cell-based; conditions: antagonistic activity; HEK293 cells co-transfected with LBD(hFXR)-pbind and luciferase reporter; GW4064 300 nM
T1 sequence (Q96RI1 262-486 limits assumed): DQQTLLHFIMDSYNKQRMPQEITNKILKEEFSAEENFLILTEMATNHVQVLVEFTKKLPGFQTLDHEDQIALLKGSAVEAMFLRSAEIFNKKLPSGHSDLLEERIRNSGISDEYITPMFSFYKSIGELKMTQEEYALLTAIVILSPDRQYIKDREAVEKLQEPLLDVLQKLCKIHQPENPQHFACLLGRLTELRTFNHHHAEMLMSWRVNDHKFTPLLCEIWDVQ
Description: The antagonistic activity of the compound against FXR was detected by the reporter gene experiment. FXR is a nuclear receptor activated by bile acids and has regulatory effects on glucose metabolism and lipid metabolism in the body. After FXR is activated, it can initiate the expression of a series of genes and respond to external stimuli. The Luciferase reporter gene system is a reporting system for detecting firefly luciferase activity. Luciferase can catalyze the oxidation of Luciferin, a fluorescent substrate, and cause emition of biological fluorescence at the same time. The amount of luciferase expression can be determined by detecting the fluorescence intensity. In this experiment, the test compound may target FXR, and GW4064 is a known FXR agonist, which initiates the expression of a series of genes after binding to the FXR ligand-binding domain. Therefore, the reporter gene experiment was used. Two plasmids, LBD (hFXR)-pbind and PGL4.31-Luc were co-transfected into HEK293 cells to express the FXR ligand-binding domain in the cells. Two test compounds were separately added and a blank control group was set, and then an agonist was added. If the compound has affinity for FXR, it will compete with the agonist for binding to the FXR ligand-binding domain and affect the expression of luciferase in pGL4.31-Luc. The Envision2101 multi-well microplate reader was used to detect the chemiluminescence count value, and the effect of the test compound on FXR activity was judged based on the fluorescence intensity. 2 μg of the chimeric plasmid LBD(hFXR)-pbind and 2 μg of Luciferase reporter plasmid were co-transfected into 2×10^6 HEK293 cells and inoculated in white opaque 96-well plates. After 24 h, the culture medium was discarded, and the test compound (diluted with serum-free culture medium, containing 1% DMSO) was added and incubated for 1 h. Then FXR agonist GW4064 (300 nM) was added to stimulate for 6 h, and finally luciferase substrate was added and shaken to lyse. Luminescence was measured on the Envision 2104 microplate reader.

Compound | IC50
CC(C)[C@@H]1CC[C@]2(C(=O)NCC(=O)O)CC[C@]3(C)C(CCC4[C@@]5(C)CC[C@@H](O)C(C)(C)C5CC[C@]43C)C12 (stereo partly drawn) [Compound C1] | 13.9 µM
CC(=O)O[C@@H]1CC[C@@]2(C)C(CC[C@]3(C)C2CCC2C4[C@H](C(C)C)CC[C@]4(C(=O)NCC(=O)O)CC[C@]23C)C1(C)C (stereo partly drawn) [Compound C2] | 6.31 µM
CCC(=O)O[C@@H]1CC[C@@]2(C)C(CC[C@]3(C)C2CCC2C4[C@H](C(C)C)CC[C@]4(C(=O)NCC(=O)O)CC[C@]23C)C1(C)C (stereo partly drawn) [Compound C3] | 3.89 µM
CCCC(=O)O[C@@H]1CC[C@@]2(C)C(CC[C@]3(C)C2CCC2C4[C@H](C(C)C)CC[C@]4(C(=O)NCC(=O)O)CC[C@]23C)C1(C)C (stereo partly drawn) [Compound C4] | 2.05 µM
CCCC(=O)O[C@H]1CC[C@@]2(C)C(CC[C@]3(C)C2CCC2C4[C@H](C(C)C)CC[C@]4(C(=O)NCC(=O)O)CC[C@]23C)C1(C)C (stereo partly drawn) [Compound C12] | 8.27 µM
CC(C)[C@@H]1CC[C@]2(C(=O)NCC(=O)O)CC[C@]3(C)C(CCC4[C@@]5(C)CC[C@@H](OC(=O)c6cccnc6)C(C)(C)C5CC[C@]43C)C12 (stereo partly drawn) [Compound C16] | 5.67 µM

target: T2, TGR5 (Homo sapiens, UniProt Q8TDU6); assay: TGR5 agonist test, HTRF cAMP detection in HEK293 cells transiently transfected with TGR5; assay type: cell-based; conditions: Table 2, TGR5 agonistic activity, HEK293 cells expressing TGR5, up to 100 μM, read-out: FXR (IC50/μM)
T2 construct: expressed in transfected cells; host or cells: HEK293
T2 sequence (Q8TDU6 1-330): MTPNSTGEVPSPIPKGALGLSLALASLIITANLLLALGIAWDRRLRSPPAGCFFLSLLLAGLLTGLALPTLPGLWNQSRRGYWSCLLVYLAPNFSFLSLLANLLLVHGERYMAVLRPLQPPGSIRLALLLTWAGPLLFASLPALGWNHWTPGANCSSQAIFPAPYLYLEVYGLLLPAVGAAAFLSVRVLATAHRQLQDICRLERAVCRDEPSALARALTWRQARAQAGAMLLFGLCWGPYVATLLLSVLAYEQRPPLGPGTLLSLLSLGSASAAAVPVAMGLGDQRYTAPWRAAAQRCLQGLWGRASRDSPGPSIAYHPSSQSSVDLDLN
Description: HEK293 cells transiently transfected with TGR5 were stimulated with compounds, and then homogeneous time-resolved fluorescence (HTRF) was used to detect whether these compounds could agitate TGR5.
TGR5 is a bile acid membrane receptor and a member of the GPCR family. It regulates the metabolism of bile acids, lipids, and sugars. TGR5 is coupled to the Gs protein, and after activation, it further activates adenylate cyclase to produce a second messenger cAMP. HTRF is a method for detecting the content of cAMP and combines two techniques of fluorescence resonance energy transfer (FRET) and time-resolved fluorescence (TRF). […] FRET induces the acceptor to generate fluorescence, and Eu has a long fluorescence lifetime. TRF can distinguish the fluorescent signal by the acceptor from the fluorescent background. The fluorescent donor is bound to a cAMP-specific antibody, and cAMP is simultaneously labeled with a fluorescent acceptor. The donor and acceptor approach to each other through the antigen-antibody specific recognition reaction to generate FRET, and the cAMP produced by the cell competes with the labeled cAMP for antibody binding sites, resulting in the decrease of fluorescence intensity.
4.1. The test compound was prepared with 1× PBS into a solution having 2 times of the final concentration. The final concentration was 100 μM, 10 μM, 1 μM, 100 nM, 10 nM, 1 nM, 0.1 nM, DMSO (each well contains 1% DMSO).
4.2.2. The cell density was determined. At the same time, IBMX (final concentration of […]) was added into the serum-free culture medium, and the number of cells was 2000/5 μl/well.
4.2.3. 5 μl of the test compound and 5 μl of the cell suspension containing IBMX were added and mixed. A 384-well plate was sealed with a foil paper. The mixtures were protected from light and reacted at room temperature for […].
4.3.1 1 μl cAMP-d2 was diluted to 20 μl by using cAMP&cGMP conjugates & lysis buffer. 4.3.2 1 μl anti-cAMP-Cryptate was diluted to 20 μl by using cAMP&cGMP conjugates&lysis buffer.
4.3.3 After 30 minutes, 5 μl (1.3.1) and 5 μl (1.3.2) were added and a 384-well plate was sealed with a foil paper. The mixtures were protected from light and reacted at room temperature.
4.4. After 60 minutes, the values were detected by Envision 2101 microplate reader (PerkinElmer).

Compound | EC50
CC(C)[C@@H]1CC[C@]2(C(=O)NCC(=O)O)CC[C@]3(C)C(CCC4[C@@]5(C)CC[C@@H](O)C(C)(C)C5CC[C@]43C)C12 (stereo partly drawn) [Compound C1] | > 100 µM
CC(=O)O[C@@H]1CC[C@@]2(C)C(CC[C@]3(C)C2CCC2C4[C@H](C(C)C)CC[C@]4(C(=O)NCC(=O)O)CC[C@]23C)C1(C)C (stereo partly drawn) [Compound C2] | > 100 µM
CCC(=O)O[C@@H]1CC[C@@]2(C)C(CC[C@]3(C)C2CCC2C4[C@H](C(C)C)CC[C@]4(C(=O)NCC(=O)O)CC[C@]23C)C1(C)C (stereo partly drawn) [Compound C3] | > 100 µM
CCCC(=O)O[C@@H]1CC[C@@]2(C)C(CC[C@]3(C)C2CCC2C4[C@H](C(C)C)CC[C@]4(C(=O)NCC(=O)O)CC[C@]23C)C1(C)C (stereo partly drawn) [Compound C4] | > 100 µM
CCCC(=O)O[C@H]1CC[C@@]2(C)C(CC[C@]3(C)C2CCC2C4[C@H](C(C)C)CC[C@]4(C(=O)NCC(=O)O)CC[C@]23C)C1(C)C (stereo partly drawn) [Compound C12] | > 100 µM
CC(C)[C@@H]1CC[C@]2(C(=O)NCC(=O)O)CC[C@]3(C)C(CCC4[C@@]5(C)CC[C@@H](OC(=O)c6cccnc6)C(C)(C)C5CC[C@]43C)C12 (stereo partly drawn) [Compound C16] | > 100 µM

tested on: HEK293 cells; assay: CCK-8 cytotoxicity test; assay type: cell-based; conditions: cytotoxicity on HEK293 cells at 30 μM
Description: The cytotoxicity of the compounds was evaluated by using CCK-8 experiment. CCK-8 is an indicator of redox reaction. In the presence of the electron carrier 1-Methoxy PMS, dehydrogenase in living cells is used to catalyze the tetrazolium salt WST-8 to form formazan dye. The production amount of formazan dye has a linear relationship with the number of living cells. The light absorption value measured at 450 nm using a microplate reader can indirectly reflect the number of living cells. Therefore, this method is used for the activity detection of some bioactive factors, large-scale anti-tumor drug screening, cell proliferation test, cytotoxicity test, and drug sensitivity test. This experiment is used to evaluate the cytotoxicity of the compounds. 2 μg of the chimeric plasmid LBD(hFXR)-pbind and 2 μg of Luciferase reporter plasmid were co-transfected into 2×10^6 HEK293 cells and inoculated in transparent 96-well plates. After 24 h, the culture medium was discarded and the test compound (diluted in serum-free culture medium, containing 1% DMSO) was added and incubated for 1 h, then FXR agonist GW4064 (300 nM) was added to agitate for 4 h. 10 μl detection reagent for CCK-8 was added to each well. After 2 hours, absorbance values at 450 nm and 650 nm (as reference wavelength) were detected with Flextation instrument.

Compound | CCK-8 Assay (30 μM)
CC(C)[C@@H]1CC[C@]2(C(=O)NCC(=O)O)CC[C@]3(C)C(CCC4[C@@]5(C)CC[C@@H](O)C(C)(C)C5CC[C@]43C)C12 (stereo partly drawn) [Compound C1] | no
CC(=O)O[C@@H]1CC[C@@]2(C)C(CC[C@]3(C)C2CCC2C4[C@H](C(C)C)CC[C@]4(C(=O)NCC(=O)O)CC[C@]23C)C1(C)C (stereo partly drawn) [Compound C2] | no
CCC(=O)O[C@@H]1CC[C@@]2(C)C(CC[C@]3(C)C2CCC2C4[C@H](C(C)C)CC[C@]4(C(=O)NCC(=O)O)CC[C@]23C)C1(C)C (stereo partly drawn) [Compound C3] | no
CCCC(=O)O[C@@H]1CC[C@@]2(C)C(CC[C@]3(C)C2CCC2C4[C@H](C(C)C)CC[C@]4(C(=O)NCC(=O)O)CC[C@]23C)C1(C)C (stereo partly drawn) [Compound C4] | no
CCCC(=O)O[C@H]1CC[C@@]2(C)C(CC[C@]3(C)C2CCC2C4[C@H](C(C)C)CC[C@]4(C(=O)NCC(=O)O)CC[C@]23C)C1(C)C (stereo partly drawn) [Compound C12] | no
CC(C)[C@@H]1CC[C@]2(C(=O)NCC(=O)O)CC[C@]3(C)C(CCC4[C@@]5(C)CC[C@@H](OC(=O)c6cccnc6)C(C)(C)C5CC[C@]43C)C12 (stereo partly drawn) [Compound C16] | no

same assay, conditions: cytotoxicity on HEK293 cells at 100 μM

Compound | CCK-8 Assay (100 μM)
CC(C)[C@@H]1CC[C@]2(C(=O)NCC(=O)O)CC[C@]3(C)C(CCC4[C@@]5(C)CC[C@@H](O)C(C)(C)C5CC[C@]43C)C12 (stereo partly drawn) [Compound C1] | no
CC(=O)O[C@@H]1CC[C@@]2(C)C(CC[C@]3(C)C2CCC2C4[C@H](C(C)C)CC[C@]4(C(=O)NCC(=O)O)CC[C@]23C)C1(C)C (stereo partly drawn) [Compound C2] | no
CCC(=O)O[C@@H]1CC[C@@]2(C)C(CC[C@]3(C)C2CCC2C4[C@H](C(C)C)CC[C@]4(C(=O)NCC(=O)O)CC[C@]23C)C1(C)C (stereo partly drawn) [Compound C3] | no
CCCC(=O)O[C@@H]1CC[C@@]2(C)C(CC[C@]3(C)C2CCC2C4[C@H](C(C)C)CC[C@]4(C(=O)NCC(=O)O)CC[C@]23C)C1(C)C (stereo partly drawn) [Compound C4] | no
CCCC(=O)O[C@H]1CC[C@@]2(C)C(CC[C@]3(C)C2CCC2C4[C@H](C(C)C)CC[C@]4(C(=O)NCC(=O)O)CC[C@]23C)C1(C)C (stereo partly drawn) [Compound C12] | no
CC(C)[C@@H]1CC[C@]2(C(=O)NCC(=O)O)CC[C@]3(C)C(CCC4[C@@]5(C)CC[C@@H](OC(=O)c6cccnc6)C(C)(C)C5CC[C@]43C)C12 (stereo partly drawn) [Compound C16] | no
